# Patent US7074824B2, “Pharmaceutical compositions containing beta-lapachone, or derivatives or analogs thereof, and methods of using same” (Arqule, Inc., priority 2001, dated 2006)
# Where two headings read alike, the source gives them in different places.
# Legend:
# [1] = Solubility in water and in 40% (w/v) HPBCD solution by UV absorbance; type: physicochemical
# Method: To determine solubilities, test compounds were first dissolved in ethanol to prepare standard solutions with concentrations in the range 2.5–10 mg/ml, then were diluted with to 10 μg/ml with water. UV scans were obtained of the 10 μg/ml standard solutions, and the wavelength of maximum absorbance and the absorbance at the maximum absorbance wavelength were determined. For each test compound 50 μl aliquots of water and of 40% HPBCD were added to individual Eppendorf tubes containing approximately 1 mg of compound each. The tubes were heated in a 30° C. waterbath, vortexed, then centrifuged at 15,000 rpm for 5 min. This step was repeated, then the tubes were cooled to room temperature for 1 hour, then were centrifuged again. The supernatant from each tube was diluted with water into the appropriate absorbance range, and the UV absorbance was measured at the compound's absorbance maximum wavelength. The concentrations of these saturated solutions were then calculated by ratio to the 10 μg/ml ethanolic standard solutions.
# BxPC-3 = assay: MTS growth inhibition assay; type: cell-based, human; conditions: BxPC-3 pancreas, read-out: Growth inhibitory activity (50% effective concentration, IC50)
# Method: (§1) A2780 and A2780/CP (ovarian); MCF-7 (breast); HT-29 (colon); BxPC-3 (pancreas); and A549 (lung). The human tumor cell lines (purchased from ATCC, Rockville, Md.) were cultured at 37° C. […] Nova Tech, Grand Island, N.Y.) containing 10% fetal bovine serum (FBS, Nova Tech). Aliquots of cells were seeded into each well of 96-well microtiter plates at a final concentration of 10^4 cells/well and incubated for 24 h prior to exposure to test compounds. […] The MTS assay is a colorimetric assay based upon the ability of viable cells to convert MTS, a novel tetrazolium compound and electron-coupling reagent, to a colored formazan product that is soluble in cell culture medium. The cell concentration is then determined by measuring the absorbance of the formazan product at 490 nm. Growth inhibition, expressed as IC50, is calculated relative to vehicle-treated control cells.
# A2780CP = assay: MTS growth inhibition assay; type: cell-based, human; conditions: A2780CP (resistant) ovarian, read-out: Growth inhibitory activity (50% effective concentration, IC50)
# Method: as §1
# HT-29 = assay: MTS growth inhibition assay; type: cell-based, human; conditions: HT-29 colon, read-out: Growth inhibitory activity (50% effective concentration, IC50)
# Method: as §1
# MCF-7 = assay: MTS growth inhibition assay; type: cell-based, human; conditions: MCF-7 breast, read-out: Growth inhibitory activity (50% effective concentration, IC50)
# Method: as §1
# A549 = assay: MTS growth inhibition assay; type: cell-based, human; conditions: A549 lung, read-out: Growth inhibitory activity (50% effective concentration, IC50)
# Method: as §1
# A2780 = assay: MTS growth inhibition assay; type: cell-based, human; conditions: A2780 (sensitive) ovarian, read-out: Growth inhibitory activity (50% effective concentration, IC50)
# Method: as §1
# [2] = system: six human cancer cells lines; assay: MTS growth inhibition assay, summary over all lines; type: cell-based; conditions: all six tumor cell lines; tested up to 20 μM
# Method: A2780 and A2780/CP (ovarian); MCF-7 (breast); HT-29 (colon); BxPC-3 (pancreas); and A549 (lung). The human tumor cell lines (purchased from ATCC, Rockville, Md.) were cultured at 37° C. (5% CO2) in RPMI medium (RPMI; Nova Tech, Grand Island, N.Y.) containing 10% fetal bovine serum (FBS, Nova Tech). Aliquots of cells were seeded into each well of 96-well microtiter plates at a final concentration of 10^4 cells/well and incubated for 24 h prior to exposure to test compounds. […] The MTS assay is a colorimetric assay based upon the ability of viable cells to convert MTS, a novel tetrazolium compound and electron-coupling reagent, to a colored formazan product that is soluble in cell culture medium. The cell concentration is then determined by measuring the absorbance of the formazan product at 490 nm. Growth inhibition, expressed as IC50, is calculated relative to vehicle-treated control cells.
structure (smiles),measurement,setting,value
"CC1(C)C=CC2=C(O1)c1ccccc1C(=O)C2=O [3,4-dehydro-βL]",Solubility Enhancement,[1],240 −Fold
same,Solubility in HPBCD Solution,[1],5800 µg/mL
same,Solubility in Water,[1],24 µg/mL
CC1(C)CC(=O)C2=C(O1)c1ccccc1C(=O)C2=O [CO-505],IC50,BxPC-3; Exp 1,> 20 µM
same,IC50,BxPC-3; Exp 2,> 20 µM
same,IC50,BxPC-3; Exp 3,> 20 µM
same,IC50,BxPC-3; Mean ± SE of 3 experiments,> 20 µM
same,IC50,A2780CP; Exp 1,> 20 µM
same,IC50,A2780CP; Exp 2,> 20 µM
same,IC50,A2780CP; Exp 3,> 20 µM
same,IC50,A2780CP; Mean ± SE of 3 experiments,> 20 µM
same,IC50,HT-29; Exp 1,> 20 µM
same,IC50,HT-29; Exp 2,> 20 µM
same,IC50,HT-29; Exp 3,> 20 µM
same,IC50,HT-29; Mean ± SE of 3 experiments,> 20 µM
same,IC50,MCF-7; Exp 1,> 20 µM
same,IC50,MCF-7; Exp 2,> 20 µM
same,IC50,MCF-7; Exp 3,> 20 µM
same,IC50,MCF-7; Mean ± SE of 3 experiments,> 20 µM
same,IC50,A549; Exp 1,> 20 µM
same,IC50,A549; Exp 2,> 20 µM
same,IC50,A549; Exp 3,> 20 µM
same,IC50,A549; Mean ± SE of 3 experiments,> 20 µM
same,IC50,"A2780; Exp 1, 4 h treatment + 24 h drug-free",> 20 µM
same,IC50,"A2780; Exp 2, 4 h treatment + 24 h drug-free",> 20 µM
same,IC50,"A2780; Exp 3, 4 h treatment + 24 h drug-free",> 20 µM
same,IC50,A2780; Mean ± SE of 3 experiments,> 20 µM
same,"growth inhibitory activity, verbal summary",[2],inactive
"CC1(C)OC2=C(CC1O)C(=O)C(=O)c1ccccc12 (stereo not shown) [Compound 3-Hydroxy-βL, 3-Hydroxy-βL]",Solubility Enhancement,[1],10.6 −Fold
same,Solubility in HPBCD Solution,[1],14600 µg/mL
same,Solubility in Water,[1],1381 µg/mL
CC1OC2=C(C(=O)C(=O)c3ccccc32)C1(C)C (stereo not shown) [Dunnione],Solubility Enhancement,[1],36 −Fold
same,Solubility in HPBCD Solution,[1],17000 µg/mL
same,Solubility in Water,[1],476 µg/mL
"CC1(C)OC2=C(CC1Br)C(=O)C(=O)c1ccccc12 (stereo not shown) [Compound 3-Bromo-βL, 3-Bromo-βL]",Solubility Enhancement,[1],191 −Fold
same,Solubility in HPBCD Solution,[1],6900 µg/mL
same,Solubility in Water,[1],36 µg/mL
CC(C)=CCC1CC2=C(OC1(C)C)c1ccccc1C(=O)C2=O (stereo not shown) [3-(3-methyl-2-butenyl)-βL],Solubility Enhancement,[1],61 −Fold
same,Solubility in HPBCD Solution,[1],4100 µg/mL
same,Solubility in Water,[1],67 µg/mL
